Experimental data published in US9637520B2, “Template-fixed peptidomimetics with CXCR7 modulating activity” (POLYPHOR AG, priority 2010, dated 2017).
Non-standard residues stand in square brackets, D forms with d. Residues, ends and D or L forms follow the SMILES beside them. *: point of attachment. Arg(Nω,Nω'-propylene) = N[C@@H](CCCNC1=NCCCN1)C(=O)O; Phe(4-CF3) = N[C@@H](Cc1ccc(C(F)(F)F)cc1)C(=O)O; Ala(pyrazol-1-yl) = N[C@@H](Cn1cccn1)C(=O)O; dPro(cis-4-NH2) = N[C@H]1CN[C@@H](C(=O)O)C1; 1Nal = N[C@@H](Cc1cccc2ccccc12)C(=O)O; 2Nal = N[C@@H](Cc1ccc2ccccc2c1)C(=O)O; Pro(3S-OH) = O=C(O)[C@H]1NCC[C@@H]1O; dCit = NC(=O)NCCC[C@@H](N)C(=O)O; hArg = N=C(N)NCCCC[C@H](N)C(=O)O; 3Pal = N[C@@H](Cc1cccnc1)C(=O)O; Tic = O=C(O)[C@@H]1Cc2ccccc2CN1; aThr = C[C@H](O)[C@H](N)C(=O)O; Agb = N=C(N)NCC[C@H](N)C(=O)O; 2Pyrimidinyl = c1cnc(*)nc1; dPip = O=C(O)[C@H]1CCCCN1; Orn = NCCC[C@H](N)C(=O)O; Dab = NCC[C@H](N)C(=O)O

target: T1, CXCR7 (Homo sapiens, UniProt P25106); test: CXCR7 β-arrestin recruitment assay (PathHunter CHO-CXCR7, DiscoverX), agonistic assay; assay type: cell-based; details: agonistic assay; CHO CXCR7 β-arrestin cells; 90 min at 37° C.; chemiluminescence; read-out: β-Arrestin EC50
T1 construct: host or cells: CHO (PathHunter CHO-CXCR7 β-arrestin cells)
T1 sequence (P25106 whole entry): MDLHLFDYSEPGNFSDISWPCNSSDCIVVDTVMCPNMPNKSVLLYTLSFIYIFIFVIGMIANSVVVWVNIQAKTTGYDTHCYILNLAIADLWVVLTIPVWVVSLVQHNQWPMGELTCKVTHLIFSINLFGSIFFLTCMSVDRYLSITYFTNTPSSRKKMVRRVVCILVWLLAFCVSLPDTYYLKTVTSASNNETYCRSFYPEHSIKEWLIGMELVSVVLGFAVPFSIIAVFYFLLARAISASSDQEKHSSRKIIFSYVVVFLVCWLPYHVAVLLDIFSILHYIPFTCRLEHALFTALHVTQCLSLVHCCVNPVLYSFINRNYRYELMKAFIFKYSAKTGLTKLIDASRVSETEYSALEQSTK
Description: Lyophilized peptides were weighed on a Microbalance (Mettler MX5) and dissolved in DMSO to a final concentration of 10 mM unless otherwise stated. Stock solutions were kept at +4° C., and protected from light.
2.2 CXCR7 β-Arrestin Recruitment Assay
The PathHunter CHO-CXCR7 (DiscoverX) assay was performed according to the manufacturer's protocol. In brief, CHO CXCR7 β-arrestin cells were seeded at a density of 5000 cells per well in 40 μl of F12 medium in black 96-half volume well culture plates and incubated overnight at 37° C. in a humidified atmosphere with 5% CO2. The next day, serial dilutions of PEM compounds have been prepared in DMSO and subsequently diluted in HBSS buffer containing 0.1% BSA.
For agonistic assay, 10 μl of compound solution or a solution of stromal cell-derived factor-1 (SDF-1) as positive control was added to the cells with a final DMSO concentration of 1% (v/v). The plate was incubated for 90 min at 37° C. in 5% CO2 incubator with gentle shaking (300 rpm) before addition of 40 μl of detection reagent per well. Reaction was developed for 90 min at room temperature in the dark with shaking, and chemiluminescence was measured with a Topcount (Perkin Elmer) luminescence counter.

SMILES	EC50
O=C1N[C@H](Cc2ccccc2)C(=O)N[C@@H](Cc2c[nH]c3ccccc23)C(=O)N[C@@H](CCCNC2=NCCCN2)C(=O)N2CCCC[C@@H]2C(=O)N2CC[C@H](O)[C@H]2C(=O)N[C@H]1Cc1c[nH]c2ccccc12 [Ex. 73, cyclo(-Trp-^DPhe-Trp-Orn(A56)-^DPip-Pro((3S)OH)—)] (cyclo(W[dF]W[Arg(Nω,Nω'-propylene)][dPip][Pro(3S-OH)]))	14 ± 0.1 nM
N=C(N)NCCC[C@@H]1NC(=O)[C@H](Cc2c[nH]c3ccccc23)NC(=O)[C@@H](Cc2ccccc2)NC(=O)[C@H](Cn2cccn2)NC(=O)[C@@H]2Cc3ccccc3CN2C(=O)[C@H]2C[C@@H](N)CN2C1=O [Ex. 74, cyclo(-Ala(1Pyraz)-^DPhe-Trp-Arg-^DPro((4R)NH2)-Tic-)] (cyclo(R[dPro(cis-4-NH2)][Tic][Ala(pyrazol-1-yl)][dF]W))	29.9 ± 8.9 nM
N=C(N)NCCC[C@@H]1NC(=O)[C@H](Cc2c[nH]c3ccccc23)NC(=O)[C@@H](Cc2ccccc2)NC(=O)[C@H](CCCNc2ncccn2)NC(=O)[C@@H]2Cc3ccccc3CN2C(=O)[C@H]2C[C@@H](N)CN2C1=O [Ex. 76, cyclo(-Orn(Ar2)-^DPhe-Trp-Arg-^DPro((4R)NH2)-Tic-)] (cyclo([Orn](2Pyrimidinyl)[dF]WR[dPro(cis-4-NH2)][Tic]))	209 ± 6.6 nM
CC[C@H](C)[C@@H]1NC(=O)[C@H]([C@@H](C)O)NC(=O)[C@H]2CCCN2C(=O)[C@H](Cc2c[nH]c3ccccc23)NC(=O)[C@H](CCCCN)NC(=O)[C@@H](CCCNC(=N)N)NC1=O [compound 3, cyclo(-Ile-^DArg-Lys-Trp-^DPro-Thr-)] (cyclo(I[dR]KW[dP]T))	78.7 ± 115 nM
CC[C@H](C)[C@@H]1NC(=O)[C@H]([C@H](C)O)NC(=O)[C@H]2CCCN2C(=O)[C@H](Cc2c[nH]c3ccccc23)NC(=O)[C@H](CCCNC(=N)N)NC(=O)[C@@H](CCCNC(=N)N)NC1=O [compound 9, cyclo(-Ile-^DArg-Arg-Trp-^DPro-alloThr-)] (cyclo(I[dR]RW[dP][aThr]))	292 ± 101 nM
CC[C@H](C)[C@@H]1NC(=O)[C@H]([C@@H](C)O)NC(=O)[C@H]2CCCN2C(=O)[C@H](Cc2c[nH]c3ccccc23)NC(=O)[C@H](CCCNC(=N)N)NC(=O)[C@@H](CCCCN)NC1=O [compound 11, cyclo(-Ile-^DLys-Arg-Trp-^DPro-Thr-)] (cyclo(I[dK]RW[dP]T))	86.7 ± 9.7 nM
CC[C@H](C)[C@@H]1NC(=O)[C@H]([C@@H](C)O)NC(=O)[C@H]2CCCN2C(=O)[C@H](Cc2c[nH]c3ccccc23)NC(=O)[C@H](CCCNC(=N)N)NC(=O)[C@@H](Cc2c[nH]cn2)NC1=O [compound 12, cyclo(-Ile-^DHis-Arg-Trp-^DPro-Thr-)] (cyclo(I[dH]RW[dP]T))	546 ± 241 nM
CC[C@H](C)[C@@H]1NC(=O)[C@H]([C@@H](C)O)NC(=O)[C@H]2CCCN2C(=O)[C@H](Cc2c[nH]c3ccccc23)NC(=O)[C@H](CCCNC(=N)N)NC(=O)[C@@H](CCCNC(N)=O)NC1=O [compound 13, cyclo(-Ile-^DCit-Arg-Trp-^DPro-Thr-)] (cyclo(I[dCit]RW[dP]T))	473 ± 68.9 nM
CC[C@H](C)[C@@H]1NC(=O)[C@H]([C@@H](C)O)NC(=O)[C@H]2CCCN2C(=O)[C@H](Cc2cccc3ccccc23)NC(=O)[C@H](CCCNC(=N)N)NC(=O)[C@@H](CCCNC(=N)N)NC1=O [compound 16, cyclo(-Ile-^DArg-Arg-1Nal-^DPro-Thr-)] (cyclo([1Nal][dP]TI[dR]R))	17.9 ± 2.6 nM
C[C@@H](O)[C@@H]1NC(=O)[C@H]([C@@H](C)O)NC(=O)[C@H]2CCCN2C(=O)[C@H](CCCNC(=N)N)NC(=O)[C@H](Cc2c[nH]c3ccccc23)NC(=O)[C@@H](CCCNC(=N)N)NC1=O [compound 19, cyclo(-Thr-^DArg-Trp-Arg-^DPro-Thr-)] (cyclo(R[dP]TT[dR]W))	17.2 ± 18.9 nM
C[C@@H]1NC(=O)[C@@H]2Cc3ccccc3CN2C(=O)[C@H]2C[C@@H](N)CN2C(=O)[C@H](CCCNC(=N)N)NC(=O)[C@H](Cc2c[nH]c3ccccc23)NC(=O)[C@@H](Cc2ccccc2)NC1=O [compound 27, cyclo(-Ala-^DPhe-Trp-Arg-^DPro((4R)NH2)-Tic-)] (cyclo(A[dF]WR[dPro(cis-4-NH2)][Tic]))	322 ± 48.2 nM
N=C(N)NCCC[C@@H]1NC(=O)[C@H](Cc2c[nH]c3ccccc23)NC(=O)[C@@H](Cc2ccccc2)NC(=O)[C@H](Cc2ccc(O)cc2)NC(=O)[C@@H]2Cc3ccccc3CN2C(=O)[C@H]2C[C@@H](N)CN2C1=O [compound 28, cyclo(-Tyr-^DPhe-Trp-Arg-^DPro((4R)NH2)-Tic-)] (cyclo(R[dPro(cis-4-NH2)][Tic]Y[dF]W))	20.9 ± 27.3 nM
NCCCC[C@@H]1NC(=O)[C@H](Cc2c[nH]c3ccccc23)NC(=O)[C@@H](Cc2ccccc2)NC(=O)[C@H](Cc2c[nH]c3ccccc23)NC(=O)[C@@H]2Cc3ccccc3CN2C(=O)[C@H]2C[C@@H](N)CN2C1=O [compound 31, cyclo(-Trp-^DPhe-Trp-Lys-^DPro((4R)NH2)-Tic-)] (cyclo(K[dPro(cis-4-NH2)][Tic]W[dF]W))	138 ± 115 nM
N[C@@H]1C[C@@H]2C(=O)N3Cc4ccccc4C[C@H]3C(=O)N[C@@H](Cc3c[nH]c4ccccc34)C(=O)N[C@H](Cc3ccccc3)C(=O)N[C@@H](Cc3c[nH]c4ccccc34)C(=O)N[C@@H](Cc3c[nH]cn3)C(=O)N2C1 [compound 32, cyclo(-Trp-^DPhe-Trp-His-^DPro((4R)NH2)-Tic-)] (cyclo(H[dPro(cis-4-NH2)][Tic]W[dF]W))	20.4 ± 6.6 nM
N=C(N)NCCC[C@@H]1NC(=O)[C@@H]2Cc3ccccc3CN2C(=O)[C@H]2C[C@@H](N)CN2C(=O)[C@H](CCCNC(=N)N)NC(=O)[C@H](Cc2c[nH]c3ccccc23)NC(=O)[C@@H](Cc2ccccc2)NC1=O [compound 33, cyclo(-Arg-^DPhe-Trp-Arg-^DPro((4R)NH2)-Tic-)] (cyclo(R[dF]WR[dPro(cis-4-NH2)][Tic]))	248 ± 16.5 nM
N=C(N)NCCC[C@@H]1NC(=O)[C@H](Cc2c[nH]c3ccccc23)NC(=O)[C@@H](Cc2ccccc2)NC(=O)[C@H](CCNC(=N)N)NC(=O)[C@@H]2Cc3ccccc3CN2C(=O)[C@H]2C[C@@H](N)CN2C1=O [compound 36, cyclo(-Agb-^DPhe-Trp-Arg-^DPro((4R)NH2)-Tic-)] (cyclo([Agb][dF]WR[dPro(cis-4-NH2)][Tic]))	452 ± 15.8 nM

Results, then the molecule that gave them:

EC50	SMILES
4.5 ± 1.1 nM	CC[C@H](C)[C@@H]1NC(=O)[C@H]([C@@H](C)O)NC(=O)[C@H]2CCCN2C(=O)[C@H](Cc2ccc(C(F)(F)F)cc2)NC(=O)[C@H](CCCNC(=N)N)NC(=O)[C@@H](CCCNC(=N)N)NC1=O [Ex. 72, cyclo(-Ile-^DArg-Arg-Phe(4CF3)-^DPro-Thr-)] (cyclo(I[dR]R[Phe(4-CF3)][dP]T))
0.1 nM	CC[C@H](C)[C@@H]1NC(=O)[C@H]([C@@H](C)O)NC(=O)[C@H]2CCCCN2C(=O)[C@H](Cc2c[nH]c3ccccc23)NC(=O)[C@H](CCCNC(=N)N)NC(=O)[C@@H](CCCNC(=N)N)NC1=O [compound 14, cyclo(-Ile-^DArg-Arg-Trp-^DPip-Thr-)] (cyclo(I[dR]RW[dPip]T))
0.4 ± 0.1 nM	CC[C@H](C)[C@@H]1NC(=O)[C@H]([C@@H](C)O)NC(=O)[C@H]2CCCN2C(=O)[C@H](Cc2ccc3ccccc3c2)NC(=O)[C@H](CCCNC(=N)N)NC(=O)[C@@H](CCCNC(=N)N)NC1=O [compound 15, cyclo(-Ile-^DArg-Arg-2Nal-^DPro-Thr-)] (cyclo([2Nal][dP]TI[dR]R))
6.7 ± 5.1 nM	CC[C@H](C)[C@@H]1NC(=O)[C@H]([C@@H](C)O)NC(=O)[C@H]2CCCN2C(=O)[C@H](Cc2c[nH]c3ccccc23)NC(=O)[C@H](CCCNC(=N)N)NC(=O)[C@@H](CCCNC(=N)N)NC1=O [compound 18, cyclo(-Ile-^DArg-Arg-Trp-^DPro-Thr-)] (cyclo(I[dR]RW[dP]T))
6.1 ± 3.3 nM	N=C(N)NCCC[C@@H]1NC(=O)[C@H](Cc2c[nH]c3ccccc23)NC(=O)[C@@H](Cc2ccccc2)NC(=O)[C@H](Cc2c[nH]c3ccccc23)NC(=O)[C@@H]2Cc3ccccc3CN2C(=O)[C@H]2C[C@@H](N)CN2C1=O [compound 26, cyclo(-Trp-^DPhe-Trp-Arg-^DPro((4R)NH2)-Tic-)] (cyclo(R[dPro(cis-4-NH2)][Tic]W[dF]W))
13.6 ± 5 nM	NCC[C@@H]1NC(=O)[C@H](Cc2c[nH]c3ccccc23)NC(=O)[C@@H](Cc2ccccc2)NC(=O)[C@H](Cc2c[nH]c3ccccc23)NC(=O)[C@@H]2Cc3ccccc3CN2C(=O)[C@H]2C[C@@H](N)CN2C1=O [compound 30, cyclo(-Trp-^DPhe-Trp-Dab-^DPro((4R)NH2)-Tic-)] (cyclo([Dab][dPro(cis-4-NH2)][Tic]W[dF]W))
12.2 ± 5.4 nM	N=C(N)NCCCC[C@@H]1NC(=O)[C@@H]2Cc3ccccc3CN2C(=O)[C@H]2C[C@@H](N)CN2C(=O)[C@H](CCCNC(=N)N)NC(=O)[C@H](Cc2c[nH]c3ccccc23)NC(=O)[C@@H](Cc2ccccc2)NC1=O [compound 35, cyclo(-hArg-^DPhe-Trp-Arg-^DPro((4R)NH2)-Tic-)] (cyclo(R[dPro(cis-4-NH2)][Tic][hArg][dF]W))
5.1 ± 0.9 nM	N=C(N)NCCC[C@@H]1NC(=O)[C@H](Cc2c[nH]c3ccccc23)NC(=O)[C@@H](Cc2ccccc2)NC(=O)[C@H](Cc2cccnc2)NC(=O)[C@@H]2Cc3ccccc3CN2C(=O)[C@H]2C[C@@H](N)CN2C1=O [compound 37, cyclo(-3Pal-^DPhe-Trp-Arg-^DPro((4R)NH2)-Tic-)] (cyclo([3Pal][dF]WR[dPro(cis-4-NH2)][Tic]))
